Measurements as given in paper PMC10290043, “Pharmacokinetics, safety, and antitumor activity of talazoparib monotherapy in Chinese patients with advanced solid tumors” (Investigational New Drugs, 2023).
“Also recorded” adds a separate entry of the source. Like-named read-outs stand apart in the source and are kept apart here.

What was measured:
clinical = conditions: human, in vivo, po, 1 mg
Protocol: A single dose of talazoparib 1 mg was administered orally on Day –9. From Cycle 1 Day 1, patients received talazoparib 1 mg QD orally on a continuous basis at approximately the same time each day (preferably in the morning) until disease progression, death, unacceptable toxicity, or withdrawal of consent. Dose interruptions or reductions were not required unless toxicity persisted at grade 2 for ≥7 days. Daily dosing was paused for grade ≥3 hematologic toxicities. Supportive care including blood products was allowed as appropriate per local guidance. To minimize any drug-drug interaction effects relating to talazoparib exposure and potential alteration to efficacy, co-medication with P-glycoprotein (P-gp) inhibitors and inducers was prohibited for Cycle 1 when intensive PK assessments were scheduled after both single-dose and multiple-dose talazoparib administrations. After Cycle 1, only potent P-gp inhibitors were prohibited to accommodate more co-medication options.
To assess the single-dose PK profile, patients took talazoparib on Day –9 of a 9-day (216 h) lead-in period; blood samples were collected at pre-dose and at 0.5, 1, 2, 4, 8, 24, 48, 96, 168, and 216 h post-dose. For the steady-state PK profile, serial samples after multiple doses of talazoparib were collected on Day 22 of the first cycle at pre-dose and at 0.5, 1, 2, 4, 8, and 24 h post-dose. Prior to serial PK sampling (Cycle 1 Day –9, Cycle 1 Day 22), patients were required to fast for at least 8 h before dosing and they had to continue fasting for 2 h after dosing to control the variability due to food effect on Cmax. For the other PK sampling points, talazoparib could have been taken with or without food. On clinic visit days, talazoparib was administered after completion of a pre-dose blood sampling for PK and assessments. Blood samples of approximately 3 mL, to provide a minimum of 1.5 mL plasma, for measurement of talazoparib concentrations were collected.
Talazoparib PK parameters were calculated for each patient and each treatment, as applicable, using non-compartmental analysis of concentration-time data. Summary statistics were calculated by setting concentration values below the lower limit of quantification to zero.

[1] = Japanese patients, cited from earlier work; for Cmax / Tmax: ref Naito et al 2021 [16]
[2] = cited from earlier work; for Tmax: median (range)
[3] = test system: advanced breast cancer and a germline BRCA alteration; set-up: method as in PMID 30110579; conditions: EMBRACA, cited from earlier work
[4] = set-up: method as in PMID 34388386; conditions: cited from earlier work
[5] = set-up: method as in PMID 35907135; conditions: 19 Japanese patients with germline BRCA-mutated advanced breast cancer; cited from earlier work
[6] = Safety: treatment-emergent adverse events, NCT04635631; format: in vivo, human; conditions: for Any AE: safety population N=15, 1 mg QD
Description: AE reporting included data up to 28 days after last dose of study drug or to start of new anticancer drug therapy Day -1 (whichever came first). For AEs, Medical Dictionary for Regulatory Activities (MedDRA), version 24.0, coding was applied.
All patients who had received at least 1 dose of talazoparib were included in the safety and efficacy analysis sets. All treated patients with at least 1 PK concentration in the single-dose and/or multiple-dose PK part were included in the PK concentration analysis set, and all treated patients with at least 1 of the PK parameters of primary interest in the single-dose and/or multiple-dose PK part were included in the PK parameter analysis set. All patients in the PK parameter analysis set who completed both the single-dose PK and multiple-dose PK parts without major protocol deviations were included in the PK evaluable analysis set.

[7] = multiple dosing 1 mg QD oral, ref de Bono et al 2017
[8] = single dosing 1 mg oral, ref de Bono et al 2017

Cn1ncnc1[C@H]1c2n[nH]c(=O)c3cc(F)cc(c23)N[C@@H]1c1ccc(F)cc1 [talazoparib]
AUC (clinical): 86.5 ng·h/mL | AUC(0-inf) (clinical): 208 ng·h/mL | AUC(0-t) (clinical): 172 ng·h/mL | Cmax (clinical): 8.51 ng/mL | Tmax (clinical): 1.9 h | Vd/F (clinical): 457 L | half-life (clinical): 67 ± 11.8 h | AUCtau ([1]; multiple dose 1 mg QD oral, geometric mean (geometric %CV), ref Naito et al 2021): 244.7 (21) ng.h/mL | Cmax ([1]; multiple dose 1 mg QD oral, geometric mean (geometric %CV)): 32.84 ng/mL | Tmax ([1]; multiple dose 1 mg QD oral, median (range)): 1.03 (0.7–1.9) h | Rac ([1]; multiple dose 1 mg QD, median (range), ref Naito et al 2021): 2.32 (1.70–8.28) | Cmax ([1]; single dose 1 mg oral, N=6, geometric mean (geometric %CV)): 13.78 ng/mL | t1/2 ([1]; single dose 1 mg oral, arithmetic mean ± standard deviation, ref Naito et al 2021): 50.73 ± 10.1 h | AUCinf ([1]; single dose 1 mg oral, geometric mean (geometric %CV), ref Naito et al 2021): 199.7 (9) ng.h/mL | Tmax ([1]; single dose 1 mg oral, median (range)): 0.97 (0.5–2.0) h | Median time to Cmax ([2]; Western patients with advanced cancers): ≤ 2 h | Mean accumulation ratio at steady state ([2]; Western patients): 2.4 fold | t1/2 (plasma elimination, biphasic kinetics) ([2]; Western patients): approximately 2 days | Cmax ([2]; multiple dosing 1 mg QD oral, N=6, ref de Bono et al 2017): 21.0 (7.99) ng/mL | Tmax [2, 7]: 1.02 (0.75–2.00) h | CL/F [2, 7]: 5.24 (1.39) L/h | Cmax ([2]; single dosing 1 mg oral, N=5, US/UK sites, ref de Bono et al 2017): 10.6 (4.22) ng/mL | t1/2 ([2]; single dosing 1 mg oral, arithmetic mean ± standard deviation, ref de Bono et al 2017): 52.9 ± 13.4 h | VZ/F ([2]; single dosing 1 mg oral, column uncertain, ref de Bono et al 2017): 415 (170) L | Tmax [2, 8]: 1.03 (0.73–2.07) h | CL/F [2, 8]: 5.39 (1.59) L/h | Hazard ratio for disease progression or death ([3]; versus standard chemotherapy, 95% CI 0.41–0.71, P < 0.001): 0.54 | Median progression-free survival ([3]; vs 5.6 months standard chemotherapy): 8.6 months | Grade 3–4 TEAE: neutropenia ([4]; TALAPRO-1, 10/127): 8% | Grade 3–4 TEAE: thrombocytopenia ([4]; TALAPRO-1, 11/127): 9% | Grade 3–4 TEAE: anemia ([4]; TALAPRO-1, 39/127): 31% | Geometric mean Ctrough (steady-state trough concentrations) [5]: 3.346 ng/mL | Patients with 1 or more dose reduction due to treatment-related AEs ([6]; 3/15 patients): Twenty percent | Any-grade treatment-related TEAE: anemia ([6]; N=15): 46.7% | Any-grade treatment-related TEAE: decreased lymphocyte count ([6]; N=15): 33.3% | Any-grade treatment-related TEAE: decreased neutrophil count ([6]; N=15): 46.7% | Any-grade treatment-related TEAE: decreased platelet count ([6]; N=15): 33.3% | Any-grade treatment-related TEAE: decreased white blood cell count ([6]; N=15): 46.7% | Any-grade treatment-related TEAE: elevated alanine aminotransferase ([6]; N=15): 33.3% | Any-grade treatment-related TEAE: elevated aspartate aminotransferase ([6]; N=15): 33.3% | Patients permanently discontinued because of treatment-related decreased neutrophil count ([6]; N=15): 6.7% | Patients with dose interruptions due to all-causality AEs ([6]; N=15): 20.0% | Patients with dose interruptions due to treatment-related AEs ([6]; N=15): 13.3% | Patients with grade 3 treatment-related TEAEs ([6]; N=15): 20% | Patients with grade 4 treatment-related TEAEs ([6]; N=15): 13.3% | Patients with serious all-causality TEAEs ([6]; N=15): 13.3% | Patients with serious treatment-related TEAEs ([6]; N=15): 13.3% | Treatment-related grade 3 or 4 TEAE: decreased neutrophil count ([6]; N=15): 20% | Treatment-related grade 3 or 4 TEAE: decreased platelet count ([6]; N=15): 20% | Patients with grade 3–4 treatment-related AEs ([6]; N=15, in words): One-third | Treatment-related grade 3 or 4 TEAE: anemia ([6]; N=15, no grade 4): 20% | Treatment-related grade 3 or 4 TEAE: hyponatremia ([6]; N=15, no grade 4): 6.7% | Treatment-related grade 3 or 4 TEAE: neutropenia ([6]; N=15, no grade 4): 6.7% | Grade 5 TEAEs ([6]; all-causality or treatment-related, N=15): No grade 5 all-causality or treatment-related TEAEs; also recorded: no grade 5 TEAEs | AEs leading to discontinuation ([6]; all-causality, N=15): 1 (6.7) n (%) | AEs leading to dose interruption ([6]; all-causality, N=15): 3 (20.0) n (%) | AEs leading to dose reduction ([6]; all-causality, N=15): 3 (20.0) n (%) | Grade 3 or 4 AE ([6]; all-causality, N=15): 9 (60.0) n (%) | Grade 3 or 4 AE: Anemia ([6]; all-causality, N=15): 3 (20.0) n (%) | Grade 3 or 4 AE: Gamma-glutamyltransferase increased ([6]; all-causality, N=15): 4 (26.7%) n (%) | Grade 3 or 4 AE: Neutrophil count decreased ([6]; all-causality, N=15): 3 (20.0) n (%) | Grade 3 or 4 AE: Platelet count decreased ([6]; all-causality, N=15): 3 (20.0) n (%) | Grade 5 AE (Death due to AE) ([6]; all-causality, N=15): 0 n (%) | Patients with any SAE ([6]; all-causality, N=15): 2 (13.3) n (%) | SAE: Anemia ([6]; all-causality, N=15): 1 (6.7) n (%) | SAE: Hypernatremia ([6]; all-causality, N=15): 1 (6.7) n (%) | SAE: Hyponatremia ([6]; all-causality, N=15): 1 (6.7) n (%) | SAE: Neutrophil count decreased ([6]; all-causality, N=15): 1 (6.7) n (%) | SAE: Platelet count decreased ([6]; all-causality, N=15): 1 (6.7) n (%) | Any AE ([6]; all-causality): 14 (93.3) n (%) | Patients with all-causality TEAEs ([6]; safety population N=15): 93.3% | Patients with treatment-related TEAEs ([6]; safety population N=15): 86.7% | AEs leading to discontinuation ([6]; treatment-related, N=15): 1 (6.7) n (%) | AEs leading to dose interruption ([6]; treatment-related, N=15): 2 (13.3) n (%) | AEs leading to dose reduction ([6]; treatment-related, N=15): 3 (20.0) n (%) | Grade 3 or 4 AE ([6]; treatment-related, N=15): 5 (33.3) n (%) | Grade 3 or 4 AE: Anemia ([6]; treatment-related, N=15): 3 (20.0) n (%) | Grade 3 or 4 AE: Gamma-glutamyltransferase increased ([6]; treatment-related, N=15): 0 n (%) | Grade 3 or 4 AE: Neutrophil count decreased ([6]; treatment-related, N=15): 3 (20.0) n (%) | Grade 3 or 4 AE: Platelet count decreased ([6]; treatment-related, N=15): 3 (20.0) n (%) | Grade 5 AE (Death due to AE) ([6]; treatment-related, N=15): 0 n (%) | Patients with any SAE ([6]; treatment-related, N=15): 2 (13.3) n (%) | SAE: Anemia ([6]; treatment-related, N=15): 1 (6.7) n (%) | SAE: Hypernatremia ([6]; treatment-related, N=15): 0 n (%) | SAE: Hyponatremia ([6]; treatment-related, N=15): 1 (6.7) n (%) | SAE: Neutrophil count decreased ([6]; treatment-related, N=15): 1 (6.7) n (%) | SAE: Platelet count decreased ([6]; treatment-related, N=15): 1 (6.7) n (%) | Any AE ([6]; treatment-related): 13 (86.7) n (%)
